Source: ChEMBL document CHEMBL1201862, “PubChem BioAssay data set” (2004)
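Interpolation was linear, between the two tested concentrations surrounding the appropriate level; five concentrations were tested over 48 hours in 96-well plates. GI50: concentration for 50% inhibition of growth.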 Activity calls are given as the source filed them. No stated cut-off is given here; in the data, active = GI50 up to about 1.1 µM and inactive = higher.

What was measured:
Assay in all cases: inhibition of tumour cell growth, NCI panel, 48 h
A549 = test system: A549
ACHN = test system: ACHN
BT-549 = test system: BT-549
DLD-1 = test system: DLD-1
HCT-116 = test system: HCT-116
HL-60 = test system: HL-60
HOP-62 = test system: HOP-62
HT-29 = test system: HT-29
IGROV-1 = test system: IGROV-1
K562 = test system: K562
NCI-H460 = test system: NCI-H460
OVCAR-4 = test system: OVCAR-4
PC-3 = test system: PC-3
RPMI-8226 = test system: RPMI-8226
SF-295 = test system: SF-295
SF-539 = test system: SF-539
SK-MEL-28 = test system: SK-MEL-28
SN12C = test system: SN12C
UACC-257 = test system: UACC-257
UO-31 = test system: UO-31

| SMILES | GI50 (A549) | GI50 (ACHN) | GI50 (BT-549) | GI50 (DLD-1) | GI50 (HCT-116) | GI50 (HL-60) | GI50 (HOP-62) | GI50 (HT-29) | GI50 (IGROV-1) | GI50 (K562) | GI50 (NCI-H460) | GI50 (OVCAR-4) | GI50 (PC-3) | GI50 (RPMI-8226) | GI50 (SF-295) | GI50 (SF-539) | GI50 (SK-MEL-28) | GI50 (SN12C) | GI50 (UACC-257) | GI50 (UO-31) |
| --- | --- | --- | --- | --- | --- | --- | --- | --- | --- | --- | --- | --- | --- | --- | --- | --- | --- | --- | --- | --- |
| c1ccc(CN2CCc3[nH]c4ccccc4c3C2)cc1 | 67.8 µM (inactive) | 33.9 µM (inactive) | 30.5 µM (inactive) | 37.8 µM (inactive) | 19.9 µM (inactive) | 17.6 µM (inactive) | 41 µM (inactive) | 17.3 µM (inactive) | 38.7 µM (inactive) | 19.1 µM (inactive) | 16.7 µM (inactive) | 34.8 µM (inactive) | 25.4 µM (inactive) | 23.8 µM (inactive) | 29.9 µM (inactive) | 25 µM (inactive) | 17.5 µM (inactive) | 34.3 µM (inactive) | 16 µM (inactive) | 31.8 µM (inactive) |
| CCN(CC)CC(C)(C)C(=O)/C=C/c1ccc(/C=C/C(=O)C(C)(C)CN(CC)CC)cc1 | 1.97 µM (inactive) | 1.34 µM (inactive) |  | 0.341 µM (active) | 0.334 µM (active) | 0.0499 µM (active) | 1.95 µM (inactive) | 0.211 µM (active) | 1.27 µM (inactive) | 0.0935 µM (active) | 0.427 µM (active) |  | 0.414 µM (active) | 0.157 µM (active) | 1.22 µM (inactive) | 1.2 µM (inactive) | 0.796 µM (active) | 0.471 µM (active) | 1.62 µM (inactive) | 1.8 µM (inactive) |
| Cn1nc2ccc3nccc(NCCNCCO)c3c2n1 | 40.2 µM (inactive) | 34.3 µM (inactive) |  | 33.2 µM (inactive) | 18.2 µM (inactive) | > 100 µM (inactive) | 47.4 µM (inactive) | 20.5 µM (inactive) | 68.4 µM (inactive) | 73.5 µM (inactive) | 18.1 µM (inactive) | 40.9 µM (inactive) |  | 26.9 µM (inactive) | 39.3 µM (inactive) | 33.6 µM (inactive) | 39.4 µM (inactive) | 32.8 µM (inactive) | 27.3 µM (inactive) | 25.8 µM (inactive) |
| N#Cc1cc([N+](=O)[O-])ccc1NC(=O)C(=O)Nn1c(S)nc2ccccc2c1=O | > 100 µM (inactive) |  |  | > 100 µM (inactive) | > 100 µM (inactive) | > 100 µM (inactive) | > 100 µM (inactive) | > 100 µM (inactive) | > 100 µM (inactive) | > 100 µM (inactive) | > 100 µM (inactive) | > 100 µM (inactive) |  | > 100 µM (inactive) | > 100 µM (inactive) | > 100 µM (inactive) | > 100 µM (inactive) | > 100 µM (inactive) | > 100 µM (inactive) | > 100 µM (inactive) |
| CCOC(=O)C(C)(C)Oc1ccc2c(-c3ccccc3)cc(=O)oc2c1 | 38.9 µM (inactive) | 40.2 µM (inactive) |  | 25.3 µM (inactive) | 35.6 µM (inactive) | 20.1 µM (inactive) | 23.1 µM (inactive) | > 10 µM (inactive) | 25.1 µM (inactive) | 27.6 µM (inactive) | > 100 µM (inactive) | 35.4 µM (inactive) |  | 18.1 µM (inactive) | 40.9 µM (inactive) | 31.8 µM (inactive) | 35.6 µM (inactive) | 37 µM (inactive) | 28.7 µM (inactive) | 23 µM (inactive) |
| CC(=O)N1CCC2(C=Nc3ccccc32)CC1 | > 100 µM (inactive) | > 100 µM (inactive) |  | > 100 µM (inactive) | > 100 µM (inactive) | > 100 µM (inactive) | > 100 µM (inactive) | > 100 µM (inactive) | > 100 µM (inactive) | > 100 µM (inactive) | > 100 µM (inactive) | > 100 µM (inactive) |  | > 100 µM (inactive) | > 100 µM (inactive) | > 100 µM (inactive) | > 100 µM (inactive) |  | > 100 µM (inactive) |  |
| O=[N+]([O-])c1ccc(-c2ccc(C3=Nn4c(CNc5ccccc5Cl)nnc4SC3)o2)cc1 | > 100 µM (inactive) | 32.6 µM (inactive) |  | > 100 µM (inactive) | > 100 µM (inactive) | > 100 µM (inactive) | > 100 µM (inactive) | > 100 µM (inactive) | > 100 µM (inactive) | 58.3 µM (inactive) | > 100 µM (inactive) |  |  | > 100 µM (inactive) | > 100 µM (inactive) | > 100 µM (inactive) | > 100 µM (inactive) | > 100 µM (inactive) | > 100 µM (inactive) | > 100 µM (inactive) |
